Measured values: US20220315554A1, “COMPOUNDS COMPRISING A […] LIGAND AND USE THEREOF” (priority 2019, published 2022)
Numbered stars: 1 amine (or outer) side, 2 acyl side, 3 side chain; on linkers, the order of the positions; unused ones are H or OH. Bridge positions count the residues as written; N and C are the ends. Square brackets hold non-standard residues; d marks the D form. Peptide text beside a SMILES is read from it. * marks the point of attachment. TBMB(SCH2CH2NH-DOTA) = O=C(O)CN1CCN(CC(=O)O)CCN(CC(=O)NCCSCc2cc(C[*:1])cc(C[*:2])c2)CCN(CC(=O)O)CC1; X3 = NC(=O)[C@H](CCCCNC(=O)CN1CCN(CC(=O)O)CCN(CC(=O)O)CCN(CC(=O)O)CC1)NC(=O)CCC(=O)NCCCOCCOCCOCCCN*; DOTA = O=C(O)CN1CCN(CC(=O)O)CCN(CC(=O)*)CCN(CC(=O)O)CC1; Pyridine(2,6-diCH2) = c1cc(C[*:1])nc(C[*:2])c1; mXylylene = c1cc(C[*:1])cc(C[*:2])c1; X25 = NCCSCc1cc(C[*:1])cc(C[*:2])c1; 4Pal = N[C@@H](Cc1ccncc1)C(=O)O; Nle = CCCC[C@H](N)C(=O)O; Hexanoyl = CCCCCC(=O)*; Sar = CNCC(=O)O

Assays:
[1] = biological target: T1, FAP-expressing human WI-38 fibroblasts (Homo sapiens, UniProt Q12884); test: Competitive FACS binding assay; details: pIC50 Category (FACS), competition with 3 nM Cy5-labeled compound, 4° C., 1 hour
T1 construct: FAP-expressing human WI-38 fibroblasts (ECACC) were cultured in EMEM; host or cells: WI-38 human fibroblasts
T1 sequence (Q12884 1-760): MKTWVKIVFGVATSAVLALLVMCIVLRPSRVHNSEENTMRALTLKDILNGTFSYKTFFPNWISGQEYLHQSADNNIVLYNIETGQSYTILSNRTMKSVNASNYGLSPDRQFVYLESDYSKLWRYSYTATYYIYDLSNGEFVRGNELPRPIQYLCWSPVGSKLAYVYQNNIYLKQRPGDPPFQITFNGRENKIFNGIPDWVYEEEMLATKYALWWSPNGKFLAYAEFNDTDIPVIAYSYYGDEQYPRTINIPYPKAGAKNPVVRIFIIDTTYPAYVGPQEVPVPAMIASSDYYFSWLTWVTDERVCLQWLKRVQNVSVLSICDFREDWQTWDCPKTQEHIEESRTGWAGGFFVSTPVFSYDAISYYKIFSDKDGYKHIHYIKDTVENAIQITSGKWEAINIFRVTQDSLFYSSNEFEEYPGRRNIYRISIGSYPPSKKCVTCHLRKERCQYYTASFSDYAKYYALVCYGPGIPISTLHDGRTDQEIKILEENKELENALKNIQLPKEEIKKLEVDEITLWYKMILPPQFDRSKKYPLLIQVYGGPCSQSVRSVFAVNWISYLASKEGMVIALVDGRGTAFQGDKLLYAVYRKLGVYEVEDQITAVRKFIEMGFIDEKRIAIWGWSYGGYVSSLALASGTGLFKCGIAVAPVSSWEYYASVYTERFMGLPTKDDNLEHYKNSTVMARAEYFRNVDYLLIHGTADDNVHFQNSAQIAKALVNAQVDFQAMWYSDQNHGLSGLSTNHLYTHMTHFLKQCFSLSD
Method: Cells were analyzed in an Attune NxT flow cytometer. […]

Human recombinant FAP = biological target: T2, Human recombinant FAP (Homo sapiens, UniProt Q12884); test: FRET-based FAP protease activity assay; assay type: biochemical; design: purchased R&D systems 3715-SE; details: pIC50 Category (Activity), FRET substrate, 37° C.
T2 sequence (Q12884 1-760): T1 sequence (Q12884 1-760)

| Compound | IC50 [1] [nM] | IC50 (Human recombinant FAP) [nM] | IC50 ([1]; WI-38 fibroblasts) [nM] | IC50 (Human recombinant FAP; recombinant human FAP) [nM] |
| --- | --- | --- | --- | --- |
| CCCCCC(=O)N[C@H]1CSCc2cc(CSCCNC(=O)CCC(=O)NCCCOCCOCCOCCCNC(=O)CN3CCN(CC(=O)O)CCN(CC(=O)O)CC3)cc(c2)CSC[C@@H](C(=O)O)NC(=O)[C@H](Cc2ccccc2)NC(=O)[C@H](CCC(N)=O)NC(=O)[C@H]([C@@H](C)O)NC(=O)[C@@H]2CCCN2C(=O)[C@@H]2CCCN2C1=O [3BP-4344, Hex-[Cys-(tMeBn(NOTA-Ttds-AET))-Pro-Pro-Thr-Gln-Phe-Cys]-OH] | < 10 | < 10 |  |  |
| CSCC[C@H](NC(C)=O)C(=O)N[C@H]1CSCc2cccc(c2)CSC[C@@H](C(=O)N[C@@H](CC(=O)O)C(=O)N[C@@H](Cc2c[nH]cn2)C(=O)N[C@@H](Cc2ccccc2)C(=O)N[C@@H](C)C(=O)N[C@@H](CC(=O)O)C(N)=O)NC(=O)[C@H](Cc2ccccc2)NC(=O)[C@H](CCC(=O)O)NC(=O)[C@H]([C@@H](C)O)NC(=O)[C@@H]2CCCN2C(=O)[C@@H]2CCCN2C1=O [3BP-3197, Ac-Met-[Cys(3MeBn)-Pro-Pro-Thr-Glu-Phe-Cys]-Asp-His-Phe-Ala-Asp-NH2] (Ac-MCPPTEFCDHFAD-NH2; linker 2-8 via mXylylene) |  |  | 100 to 794 | 100 to 794 |
| CCCCCC(=O)N[C@H]1CSCc2cc(CSCCN)cc(c2)CSC[C@@H](C(=O)N[C@@H](CC(=O)O)C(N)=O)NC(=O)[C@H](Cc2ccccc2)NC(=O)[C@H](CCC(N)=O)NC(=O)[C@H]([C@@H](C)O)NC(=O)[C@@H]2CCCN2C(=O)[C@@H]2CCCN2C1=O [3BP-3981, Hex-[Cys-(tMeBn(H-AET))-Pro-Pro-Thr-Gln-Phe-Cys]-Asp-NH2] (Hexanoyl-CPPTQFCD-NH2; linker 1-7 via X25) | 10 to 79.4 | < 10 |  |  |
| CCCCCC(=O)N[C@H]1CSCc2cc(CSCCNC(=O)CCOCCOCCOCCOCCOCCOCCNC(=O)[C@H](CO)NC(=O)[C@H](CO)NC(=O)[C@H](CO)NC(=O)CS)cc(c2)CSC[C@@H](C(=O)O)NC(=O)[C@H](Cc2ccccc2)NC(=O)[C@H](CCC(N)=O)NC(=O)[C@H]([C@@H](C)O)NC(=O)[C@@H]2CCCN2C(=O)[C@@H]2CCCN2C1=O [3BP-4308, Hex-[Cys-(tMeBn(H-SAc-Ser-Ser-Ser-Ttds-AET))-Pro-Pro-Thr-Gln-Phe-Cys]-OH] | 10 to 79.4 | 10 to 79.4 |  |  |
| C[C@@H](O)[C@@H]1NC(=O)[C@@H]2CCCN2C(=O)[C@@H]2CCCN2C(=O)[C@@H](NC(=O)CN2CCN(CC(=O)O)CCN(CC(=O)O)CCN(CC(=O)O)CC2)CSCc2cccc(c2)CSC[C@@H](C(=O)N[C@@H](CC(=O)O)C(=O)N[C@@H](Cc2c[nH]cn2)C(=O)N[C@@H](Cc2ccccc2)C(=O)N[C@@H](CCCNC(=N)N)C(=O)N[C@@H](CC(=O)O)C(N)=O)NC(=O)[C@H](Cc2ccccc2)NC(=O)[C@H](CCC(=O)O)NC1=O [3BP-3174, DOTA-[Cys(3MeBn)-Pro-Pro-Thr-Glu-Phe-Cys]-Asp-His-Phe-Arg-Asp-NH2] ({DOTA}-CPPTEFCDHFRD-NH2; linker 1-7 via mXylylene) |  |  | 100 to 794 | 100 to 794 |
| CCCCCC(=O)N[C@H]1CSCc2cc(CSCCNC(=O)CN3CCN4CCN5CCN(CC3)CC(=O)[O][Lu]([O]C(=O)C4)[O]C(=O)C5)cc(c2)CSC[C@@H](C(=O)N[C@@H](CC(=O)O)C(=O)NCCCC(=O)NC(CCCNC(=N)N)C(=O)NCCCOCCOCCOCCCNC(=O)CCC(=O)NC(CCCCNC(=O)c2ccc(-c3c4ccc(=N)c(S(=O)(=O)O)c-4oc4c(S(=O)(=O)O)c(N)ccc34)c(C(=O)O)c2)C(N)=O)NC[C@H](Cc2ccccc2)NC(=O)[C@H](CCC(N)=O)NC(=O)C([C@@H](C)O)NC(=O)[C@@H]2CCCN2C(=O)[C@@H]2CCCC2C1=O (stereo partly drawn) [3BP-4372, Hex-[Cys(tMeBn(LuDOTA-AET))-Pro-Pro-Thr-Gln-Phe-Cys]-Asp-Gab-Arg-Ttds-Lys(AF488)-NH2] | < 10 | < 10 |  |  |
| CCCCCC(=O)N[C@H]1CSCc2cccc(c2)CSC[C@@H](C(=O)N[C@@H](CC(=O)O)C(=O)N[C@@H](Cc2c[nH]cn2)C(=O)N[C@@H](Cc2ccncc2)C(=O)N[C@H](CCCNC(=N)N)C(=O)NCCCOCCOCCOCCCNC(=O)CCC(=O)N[C@@H](CCCCNC(=O)CN2CCN(CC(=O)O)CCN(CC(=O)O)CCN(CC(=O)O)CC2)C(N)=O)NC(=O)[C@H](Cc2ccccc2)NC(=O)[C@H](CCC(=O)O)NC(=O)[C@H]([C@@H](C)O)NC(=O)[C@@H]2CCCN2C(=O)[C@@H]2CCCN2C1=O [3BP-3277, Hex-[Cys(3MeBn)-Pro-Pro-Thr-Glu-Phe-Cys]-Asp-His-Ppa-arg-Ttds-Lys(DOTA)-NH2] (Hexanoyl-CPPTEFCDH[4Pal][dR]-X3; linker 1-7 via mXylylene) |  |  | < 10 | < 10 |
| CCCCCC(=O)N[C@H]1CSCc2cccc(c2)CSC[C@@H](C(N)=O)NC(=O)[C@H](Cc2c[nH]c3ccccc23)NC(=O)[C@H](CCC(N)=O)NC(=O)[C@H]([C@@H](C)O)NC(=O)[C@@H]2CCCN2C(=O)[C@@H]2CCCN2C1=O [3BP-3408, Hex-[Cys(3MeBn)-Pro-Pro-Thr-Gln-Trp-Cys]-NH2] (Hexanoyl-CPPTQWC-NH2; linker 1-7 via mXylylene) |  |  | 10 to 79.4 | 10 to 79.4 |
| CCCCCC(=O)N[C@H]1CSCc2cc(CSCCNC(=O)CN3CCN(CC(=O)O)CCN(CC(=O)O)Cc4cccc(n4)C3)cc(c2)CSC[C@@H](C(=O)O)NC(=O)[C@H](Cc2ccccc2)NC(=O)[C@H](CCC(N)=O)NC(=O)[C@H]([C@@H](C)O)NC(=O)[C@@H]2CCCN2C(=O)[C@@H]2CCCN2C1=O [3BP-4379, Hex-[Cys-(tMeBn(PCTA-AET))-Pro-Pro-Thr-Gln-Phe-Cys]-OH] | < 10 | < 10 |  |  |
| CCCC[C@H](NC(=O)CN1CCN(CC(=O)O)CCN(CC(=O)O)CCN(CC(=O)O)CC1)C(=O)N[C@H]1CSCc2cccc(c2)CSC[C@@H](C(=O)N[C@@H](CC(=O)O)C(=O)N[C@@H](Cc2c[nH]cn2)C(=O)N[C@@H](Cc2ccccc2)C(=O)N[C@@H](CCCNC(=N)N)C(=O)N[C@@H](CC(=O)O)C(N)=O)NC(=O)[C@H](Cc2ccccc2)NC(=O)[C@H](CCC(=O)O)NC(=O)[C@H]([C@@H](C)O)NC(=O)[C@@H]2CCCN2C(=O)[C@@H]2CCCN2C1=O [3BP-3088, DOTA-Nle-[Cys(3MeBn)-Pro-Pro-Thr-Glu-Phe-Cys]-Asp-His-Phe-Arg-Asp-NH2] ({DOTA}-[Nle]CPPTEFCDHFRD-NH2; linker 2-8 via mXylylene) |  |  | 100 to 794 | 100 to 794 |
| CCCCCC(=O)N[C@H]1CSCc2cccc(n2)CSC[C@@H](C(=O)N[C@@H](CC(=O)O)C(N)=O)NC(=O)[C@H](Cc2ccccc2)NC(=O)[C@H](CCC(N)=O)NC(=O)[C@H]([C@@H](C)O)NC(=O)[C@@H]2CCCN2C(=O)[C@@H]2CCCN2C1=O [3BP-3518, Hex-[Cys(2Lut)-Pro-Pro-Thr-Gln-Phe-Cys]-Asp-NH2] (Hexanoyl-CPPTQFCD-NH2; linker 1-7 via Pyridine(2,6-diCH2)) |  |  | < 10 | < 10 |
| CCCCCC(=O)N[C@H]1CSCc2cc(CSCCNC(=O)CN3CCN(CC(=O)O)CCN(CC(=O)O)CCN(CC(=O)O)CC3)cc(c2)CSC[C@@H](C(N)=O)NC(=O)[C@H](Cc2ccccc2)NC(=O)[C@H](CCC(N)=O)NC(=O)[C@H]([C@@H](C)O)NC(=O)[C@@H]2CCCN2C(=O)CN(C)C1=O [3BP-3744, Hex-[Cys(tMeBn(DOTA-AET))-Nmg-Pro-Thr-Gln-Phe-Cys]-NH2] (Hexanoyl-C[Sar]PTQFC-NH2; linker 1-7 via TBMB(SCH2CH2NH-DOTA)) | < 10 | < 10 |  |  |
| CCCCCC(=O)N[C@H]1CSCc2cc(CSCCNC(=O)CN(CCN(CCN(CC(=O)O)CC(=O)O)CC(=O)O)CC(=O)O)cc(c2)CSC[C@@H](C(=O)O)NC(=O)[C@H](Cc2ccccc2)NC(=O)[C@H](CCC(N)=O)NC(=O)[C@H]([C@@H](C)O)NC(=O)[C@@H]2CCCN2C(=O)[C@@H]2CCCN2C1=O [3BP-4309, Hex-[Cys-(tMeBn(DTPA2-AET))-Pro-Pro-Thr-Gln-Phe-Cys]-OH] | 10 to 79.4 | 10 to 79.4 |  |  |
| CSCC[C@H](NC(C)=O)C(=O)N[C@H]1CSCc2cccc(c2)CSC[C@@H](C(=O)N[C@@H](CC(=O)O)C(=O)N[C@@H](Cc2c[nH]cn2)C(=O)N[C@@H](Cc2ccccc2)C(=O)N[C@@H](CCCNC(=N)N)C(=O)N[C@@H](CC(=O)O)C(N)=O)NC(=O)[C@@H](Cc2ccccc2)NC(=O)[C@H](CCC(=O)O)NC(=O)[C@H]([C@@H](C)O)NC(=O)[C@@H]2CCCN2C(=O)[C@@H]2CCCN2C1=O [3BP-3180, Ac-Met-[Cys(3MeBn)-Pro-Pro-Thr-Glu-phe-Cys]-Asp-His-Phe-Arg-Asp-NH2] (Ac-MCPPTE[dF]CDHFRD-NH2; linker 2-8 via mXylylene) |  |  | 100 to 794 | 100 to 794 |
